Assay results: patent US10806726B2, “Methods of using indazole-3-carb oxamides and their use as Wnt/B-catenin signaling pathway inhibitors” (Samumed, LLC, priority 2016, dated 2020)

What was measured:
[1] = tested on: Wnt-responsive promoter driving firefly luciferase in SW480 cells; assay: Wnt reporter (SP5 promoter-luciferase) screening assay in SW480 cells; format: cell-based; settings: Homo sapiens, 24-40 h, top concentration ten micromolar
In short: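 SW480 (APC-mutant colon) cells stably transduced with lentiviral SP5-promoter (eight TCF/LEF sites) firefly luciferase, ~10,000 cells/well. Signals normalized to DMSO controls for EC50 fitting.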

[2] = tested on: primary human mesenchymal stem cells (hMSCs); assay: Tenocyte differentiation screening in hMSCs (SCXA-positive cells, 4 days); format: cell-based; settings: 96 h, fold change over DMSO
In short: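 Primary hMSCs at passage 3–6 were treated with compound, fixed and immunostained for SCXA, and SCXA-positive cells per well were counted by imaging. Counts were normalized to DMSO wells as fold change, averaged over triplicates, and EC50 was fitted, with high-dose values manually corrected for solubility.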

SMILES: Nc1cncc(-c2ccc3[nH]nc(C(=O)Nc4ccc(N5CCCCC5)nc4)c3c2)c1 [compound 182, 5-(5-Aminopyridin-3-yl)-N-(6-(piperidin-1-yl)pyridin-3-yl)-1H-indazole-3-carboxamide]
- EC50 [1]: 35 nM
- EC50 [2]: 8040 nM

SMILES: O=C(Nc1ccc(N2CCCC2)nc1)c1n[nH]c2ccc(-c3cncc(CN4CCC(F)(F)C4)c3)cc12 [compound 183, 5-(5-((3,3-Difluoropyrrolidin-1-yl)methyl)pyridin-3-yl)-N-(6-(pyrrolidin-1-yl)pyridin-3-yl)-1H-indazole-3-carboxamide]
- EC50 [1]: 49 nM
- EC50 [2]: > 100000 nM

SMILES: O=C(NC1CCCC1)c1ccc(NC(=O)c2n[nH]c3ccc(-c4cncc(CN5CCCCC5)c4)cc23)cn1 [compound 184, N-(6-(Cyclopentylcarbamoyl)pyridin-3-yl)-5-(5-(piperidin-1-ylmethyl)pyridin-3-yl)-1H-indazole-3-carboxamide]
- EC50 [1]: 40 nM
- EC50 [2]: > 100000 nM

SMILES: CS(=O)(=O)c1ccc(NC(=O)c2n[nH]c3ccc(-c4cncc(CN5CCCCC5)c4)cc23)cn1 [compound 185, N-(6-(Methylsulfonyl)pyridin-3-yl)-5-(5-(piperidin-1-ylmethyl)pyridin-3-yl)-1H-indazole-3-carboxamide]
- EC50 [1]: 27 nM
- EC50 [2]: 6440 nM

SMILES: CN1CCN(c2cncc(-c3ccc4[nH]nc(C(=O)Nc5ccc(N6CCCC6)nc5)c4c3)c2)CC1 [compound 186, 5-(5-(4-Methylpiperazin-1-yl)pyridin-3-yl)-N-(6-(pyrrolidin-1-yl)pyridin-3-yl)-1H-indazole-3-carboxamide]
- EC50 [1]: 460 nM
- EC50 [2]: > 100000 nM

SMILES: O=C(Nc1ccc(N2CCCC2)nc1)c1n[nH]c2ccc(-c3cncc(N4CCOCC4)c3)cc12 [compound 187, 5-(5-Morpholinopyridin-3-yl)-N-(6-(pyrrolidin-1-yl)pyridin-3-yl)-1H-indazole-3-carboxamide]
- EC50 [1]: 215 nM
- EC50 [2]: > 100000 nM

SMILES: O=C(Nc1cccnc1)c1n[nH]c2ccc(-c3cncc(CN4CCC(F)(F)C4)c3)cc12 [compound 188, 5-(5-((3,3-Difluoropyrrolidin-1-yl)methyl)pyridin-3-yl)-N-(pyridin-3-yl)-1H-indazole-3-carboxamide]
- EC50 [1]: 9 nM
- EC50 [2]: 1210 nM

SMILES: O=C(Nc1cccnc1)c1n[nH]c2ccc(-c3cncc(N4CCCC4)c3)cc12 [compound 189, N-(Pyridin-3-yl)-5-(5-(pyrrolidin-1-yl)pyridin-3-yl)-1H-indazole-3-carboxamide]
- EC50 [1]: 85 nM
- EC50 [2]: > 100000 nM

SMILES: CN(C)Cc1cncc(-c2ccc3[nH]nc(C(=O)Nc4ccc(N5CCCC5)nc4)c3c2)c1 [compound 190, 5-(5-((Dimethylamino)methyl)pyridin-3-yl)-N-(6-(pyrrolidin-1-yl)pyridin-3-yl)-1H-indazole-3-carboxamide]
- EC50 [1]: 1200 nM
- EC50 [2]: > 100000 nM
